Results from US20220348584A1, “PERK INHIBITING INDOLINYL COMPOUNDS” (HiberCell, Inc., priority 2019, published 2022).
Like-named read-outs stand apart in the source and are kept apart here.

How the values were obtained:
[1] = biological target: T1, EIF2AK3 (PERK) catalytic domain (amino acids 536-1116) (Homo sapiens, UniProt Q9NZJ5); assay: PERK In Vitro Activity Assay (Isolated), TR-FRET kinase assay; type: biochemical; conditions: isolated PERK enzyme, 1.5 μM ATP
T1 construct: EIF2AK3 (PERK) catalytic domain (amino acids 536-1116); purchased Invitrogen, Carlsbad, Calif
T1 sequence (Q9NZJ5 536-1116): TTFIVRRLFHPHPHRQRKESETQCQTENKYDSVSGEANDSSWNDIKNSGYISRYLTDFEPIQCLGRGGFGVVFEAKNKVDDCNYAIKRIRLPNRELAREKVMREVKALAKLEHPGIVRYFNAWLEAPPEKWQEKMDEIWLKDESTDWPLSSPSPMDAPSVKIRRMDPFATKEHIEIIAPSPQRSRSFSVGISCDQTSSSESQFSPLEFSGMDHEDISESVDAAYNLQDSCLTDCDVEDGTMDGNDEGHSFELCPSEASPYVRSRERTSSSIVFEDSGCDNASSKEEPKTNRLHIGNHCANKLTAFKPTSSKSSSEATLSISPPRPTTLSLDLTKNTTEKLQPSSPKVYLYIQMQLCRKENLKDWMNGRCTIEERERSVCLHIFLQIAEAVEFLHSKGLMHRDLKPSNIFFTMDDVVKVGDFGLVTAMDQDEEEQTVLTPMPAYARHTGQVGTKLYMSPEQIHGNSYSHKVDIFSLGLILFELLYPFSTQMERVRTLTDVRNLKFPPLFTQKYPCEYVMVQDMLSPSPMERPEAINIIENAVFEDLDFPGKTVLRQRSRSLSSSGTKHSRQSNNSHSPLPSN
Description: Perform TR-FRET kinase assays in the absence or presence of inhibitors in a reaction buffer consisting of 50 mM HEPES, pH 7.5, 10 mM MgCb, 1.0 mM EGTA, and 0.01% Brij-35, and 100-200 nM GFP-eIF2a substrate. […] Add test compound, initiate the reaction by addition of enzyme, and incubate at room temperature for 45 minutes. Stop the reaction by addition of EDTA to a final concentration of 10 mM, add Terbium-labelled phospho-eIF2a antibody at a final concentration of 2 nM, and incubate for 90 minutes. Monitor the resulting fluorescence in an EnVison® Multilabel reader (PerkinElmer, Waltham, Mass.).

HEK293-EGFP-eIF2a cells = assay: PERK Cellular Assay (TR-FRET, GFP-eIF2α, tunicamycin-induced ER stress); type: cell-based, human
Description: Stable cell lines were created in HEK293 cells using lentiviral particles harboring an expression vector for GFP-eIF2α. Cells were selected using puromycin and enriched using fluorescence activated cell sorting against GFP. HEK293-EGFP-eIF2a cells were plated at 5000 cells/well in 384-well assay plates and incubated overnight at 37° C., 5% CO2. Inhibitor compounds were added to the wells by Echo acoustic dispensing and incubated for 30 minutes at 37° C., 5% CO2 prior to induction of ER stress by addition of tunicamycin to […] for 2 hours. Cells were lysed and TR-FRET was measured in an EnVision plate reader (PerkinElmer). FRET ratio data was normalized to signal from lysates treated with DMSO vehicle control and plotted as percent inhibition against 10-point; 3-fold dilution series of inhibitors. IC50 values were calculated using 4-parameter logistical fitting in XLFit.

[2] = HEK293-EGFP-eIF2a cells, tunicamycin 2 hours, TR-FRET, read-out: Cellular eIF2α IC50
[3] = Homo sapiens, 2 h, HEK293-EGFP-eIF2a cells, tunicamycin 2 hours, TR-FRET, read-out: Cellular eIF2α IC50

Compound	IC50 ([1]; read-out: Biochemical IC50) [µM]	IC50 (HEK293-EGFP-eIF2a cells; [2]) [µM]	IC50 ([1]; Biochemical IC50 (μM)) [µM]	IC50 (HEK293-EGFP-eIF2a cells; Homo sapiens, 2 h, read-out: Cellular eIF2α IC50 (μM)) [µM]	IC50 (HEK293-EGFP-eIF2a cells; [3]) [µM]
Cn1cc(-c2ccc3c(c2F)CCN3C(=O)C(O)c2ccccc2)c2c(N)ncnc21 (single isomer, unassigned) [Example 1, 1-(5-(4-amino-7-methyl-7H-pyrrolo[2,3-d]pyrimidin-5-yl)-4-fluoroindolin-1-yl)-2-hydroxy-2-phenylethanone]	0.001 to 0.025	0.001 to 0.025			
Cn1cc(-c2ccc3c(c2F)CCN3C(=O)C(N)c2ccccc2)c2c(N)ncnc21 (single isomer, unassigned) [Example 4, 2-amino-1-(5-(4-amino-7-methyl-7H-pyrrolo[2,3-d]pyrimidin-5-yl)-4-fluoroindolin-1-yl)-2-phenylethanone]	0.101 to 0.25	0.051 to 0.1			
Cn1cc(-c2ccc3c(c2F)CCN3C(=O)Cc2cccc(C(F)(F)F)n2)c2c(N)ncnc21 [Example 22, 1-(5-(4-amino-7-methyl-7H-pyrrolo[2,3-d]pyrimidin-5-yl)-4-fluoroindolin-1-yl)-2-(6-(trifluoromethyl)pyridin-2-yl)ethanone]			0.001 to 0.025	0.001 to 0.025	
Cc1nc(N)c2c(-c3ccc4c(c3F)CCN4C(=O)C(O)c3cc(F)cc(F)c3)cn(C)c2n1 (racemic) [Example 10, 1-(5-(4-amino-2,7-dimethyl-7H-pyrrolo[2,3-d]pyrimidin-5-yl)-4-fluoroindolin-1-yl)-2-(3,5-difluorophenyl)-2-hydroxyethanone]	0.001 to 0.025				0.001 to 0.025
Cc1cc(C)n(CC(=O)N2CCc3c2ccc(-c2cn(C)c4nc(C)nc(N)c24)c3F)n1 [Example 32, 1-(5-(4-amino-2,7-dimethyl-7H-pyrrolo[2,3-d]pyrimidin-5-yl)-4-fluoroindolin-1-yl)-2-(3,5-dimethyl-1H-pyrazol-1-yl)ethanone]	0.001 to 0.025				0.051 to 0.1
Cc1cccc(CC(=O)N2CCc3c2ccc(-c2cn(C)c4nc(C)nc(N)c24)c3F)n1 [Example 21, 1-(5-(4-amino-2,7-dimethyl-7H-pyrrolo[2,3-d]pyrimidin-5-yl)-4-fluoroindolin-1-yl)-2-(6-methylpyridin-2-yl)ethanone]	0.001 to 0.025				0.026 to 0.05
Cc1nc(N)c2c(-c3ccc4c(c3)CCN4C(=O)C(O)c3cc(F)cc(C(F)(F)F)c3)cn(C)c2n1 (single isomer, unassigned) [Example 20, 1-(5-(4-amino-2,7-dimethyl-7H-pyrrolo[2,3-d]pyrimidin-5-yl)indolin-1-yl)-2-(3-fluoro-5-(trifluoromethyl)phenyl)-2-hydroxyethanone]	0.026 to 0.05	0.026 to 0.05			
